Measured values published in ChEMBL document CHEMBL1136199, “2,6,8,9-tetrasubstituted purines as new CDK1 inhibitors” (Bioorg Med Chem Lett, 2003).

Tests used:
MCF7 = assay: cells; assay type: functional, cell-based; conditions: Homo sapiens
Description: Cytotoxic property against MCF-7 cell line was determined

K562 = assay: cells; assay type: functional, cell-based; conditions: Homo sapiens
Description: Cytotoxic property against K562 cell line was determined

Compound	IC50 (MCF7)	IC50 (K562)
CCC(CO)Nc1nc(NCc2ccccc2)c2nc([N+](=O)[O-])n(C(C)C)c2n1 (stereo not given)	117 µM	117 µM
CCC(CO)Nc1nc(NCc2ccccc2)c2nc(C)n(C(C)C)c2n1 (stereo not given)	94 µM	58 µM
CCC(CO)Nc1nc(NCc2ccccc2)c2nc(N)n(C(C)C)c2n1 (stereo not given)	60 µM	80 µM
CCCOc1nc2c(NCc3ccccc3)nc(NC(CC)CO)nc2n1C(C)C (stereo not given)	50 µM	20 µM
CCC(CO)Nc1nc(NCc2ccccc2)c2nc(Cl)n(C(C)C)c2n1 (stereo not given)	54 µM	91 µM
CCC(CO)Nc1nc(NCc2ccccc2)c2nc(NCCCO)n(C(C)C)c2n1 (stereo not given)	40 µM	30 µM
CCC(CO)Nc1nc(NCc2ccccc2)c2nc(S)n(C(C)C)c2n1 (stereo not given)	55 µM	154 µM
CCC(CO)Nc1nc(NCc2cccc(O)c2)c2nc(Cl)n(C(C)C)c2n1 (stereo not given)	27 µM	27 µM
Cc1nc2c(Nc3cccc(Cl)c3)nc(NC3CCC(N)CC3)nc2n1C(C)C (stereo not given)	8 µM	3.5 µM

More lines, now with the values ahead:

IC50 (MCF7)	IC50 (K562)	Compound
45 µM	21 µM	CC(C)C(CO)Nc1nc(Nc2cccc(Cl)c2)c2nc(Cl)n(C(C)C)c2n1 (stereo not given)
53 µM	27 µM	CCC(CO)Nc1nc(NCc2ccccc2)c2nc(Br)n(C(C)C)c2n1 (stereo not given)
1.1 µM	1.4 µM	CC(C)n1cnc2c(Nc3cccc(Cl)c3)nc(NC3CCC(N)CC3)nc21 (stereo not given)
	74 µM	CCC(CO)Nc1nc(NCc2ccccc2)c2nc(O)n(C(C)C)c2n1 (stereo not given)
